Some test systems named below: MDA-MB-231 breast; LOX IMVI melanoma; NCI-H460 lung; RPMI-8226 leukemia; UACC-257 melanoma; HS 578T breast; ACHN renal; HCT-15 colon; MDA-MB-435; HOP-62 NSCLC.
Common to all, as to assay: NCI tumour cell line growth inhibition, 48 h

This passage reports GI50 and TGI results from PubChem BioAssay (NCI).

Where “and” joins values, the source holds several entries; their conditions need not be identical. Equal entries are not always repeated.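 Following 48 hours of exposure in 96-well plates, responses at five concentrations were used to interpolate endpoints linearly. GI50: concentration for 50% inhibition of growth. TGI: total growth inhibition.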

Turning to `NC(=O)c1c[nH]c2ncnc(N)c12`, the GI50 in the assay with MDA-MB-231 breast was 91.5 µM; with LOX IMVI melanoma, 48.6 µM; in the assay on NCI-H460 lung, 45.1 µM; in the assay with RPMI-8226 leukemia, 14.4 µM; in the assay with UACC-257 melanoma, greater than 100 µM; in the assay on HS 578T breast it was 36.4 µM. The GI50 was 44.1 µM in the assay on ACHN renal, 41.8 µM in the assay on HCT-15 colon, 26.6 µM with MDA-MB-435 and 53.3 µM in the assay on HOP-62 NSCLC. Besides, the TGI in the assay with MDA-MB-231 breast is greater than 100 µM; with LOX IMVI melanoma it was greater than 100 µM; in the assay on NCI-H460 lung, greater than 100 µM; in the assay with RPMI-8226 leukemia, 50.7 µM; in the assay on UACC-257 melanoma, greater than 100 µM; with HS 578T breast, greater than 100 µM. For the same compound, the TGI in the assay on ACHN renal, in the assay with HCT-15 colon, in the assay with MDA-MB-435 and with HOP-62 NSCLC was greater than 100 µM each time.
For `CCOC(=O)C1=C(C)NC2SC(=O)/C(=C\c3cccc(Cl)c3)N2C1c1ccccc1` (stereo not drawn), the GI50 is greater than 100 µM in the assay with MDA-MB-231 breast; greater than 100 µM in the assay on LOX IMVI melanoma; greater than 100 µM in the assay on NCI-H460 lung; greater than 100 µM with RPMI-8226 leukemia; greater than 100 µM in the assay with UACC-257 melanoma; 90.4 µM in the assay with HS 578T breast. Moreover, the GI50 in the assay with ACHN renal, with HCT-15 colon, with MDA-MB-435 and with HOP-62 NSCLC was greater than 100 µM throughout. Further, the TGI in the assay with MDA-MB-231 breast, in the assay on LOX IMVI melanoma, in the assay with NCI-H460 lung, with RPMI-8226 leukemia, in the assay with UACC-257 melanoma and in the assay with HS 578T breast was greater than 100 µM in each case. For the same compound, the TGI in the assay with ACHN renal, with HCT-15 colon, in the assay on MDA-MB-435 and in the assay with HOP-62 NSCLC was greater than 100 µM each time.
In the case of `CCCCCCCCCCCCCCCC(=O)NS(=O)(=O)OC[C@H]1O[C@@H](n2cnc3c(N)ncnc32)[C@H](O)[C@@H]1O`, the GI50 in the assay on MDA-MB-231 breast is 0.381 µM; with LOX IMVI melanoma, 0.394 µM; with NCI-H460 lung it was 0.107 µM; in the assay on RPMI-8226 leukemia, 3.44 µM; in the assay with UACC-257 melanoma, 0.333 µM; in the assay on HS 578T breast it was 0.982 µM. In addition, the figures for the GI50 in the assay on HCT-15 colon, in the assay on MDA-MB-435 and with HOP-62 NSCLC were less than 0.0424 µM, 0.21 µM and less than 0.0198 µM, respectively. Also, the TGI was 1.71 µM in the assay on MDA-MB-231 breast; 1.58 µM with LOX IMVI melanoma; 8.6 µM in the assay with NCI-H460 lung; 14.2 µM in the assay on RPMI-8226 leukemia; 1.47 µM with UACC-257 melanoma; 6.04 µM in the assay on HS 578T breast. For the same compound, the TGI stood at 1.64 µM in the assay with ACHN renal, 2.11 µM with HCT-15 colon and 0.551 µM in the assay with MDA-MB-435.
On to `O=C(Cc1cc(O)ccc1O)NO`, for which the GI50 is 19.9 µM with MDA-MB-231 breast; 28.5 µM with LOX IMVI melanoma; 89.8 µM in the assay with NCI-H460 lung; 19 µM in the assay on RPMI-8226 leukemia; 59.9 µM with UACC-257 melanoma; greater than 100 µM with HS 578T breast. Moreover, the GI50 in the assay with ACHN renal is greater than 100 µM; in the assay on HCT-15 colon it was 74.6 µM; in the assay on MDA-MB-435, 15.4 µM; with HOP-62 NSCLC it was greater than 100 µM. Besides, the TGI is 47 µM in the assay on MDA-MB-231 breast; 80.9 µM in the assay on LOX IMVI melanoma; greater than 100 µM in the assay on NCI-H460 lung; 40 µM with RPMI-8226 leukemia; greater than 100 µM in the assay on UACC-257 melanoma; greater than 100 µM in the assay with HS 578T breast. Besides, the TGI in the assay on ACHN renal was greater than 100 µM; with HCT-15 colon, greater than 100 µM; in the assay with MDA-MB-435, 31.2 µM; with HOP-62 NSCLC, greater than 100 µM.
As for `O=C1/C(=C/c2ccc(Cl)cc2)CN(Cc2cn(CCCNc3ccnc4cc(Cl)ccc34)nn2)C/C1=C\c1ccc(Cl)cc1`, the GI50 in the assay with MDA-MB-231 breast was 0.757 µM; with LOX IMVI melanoma it was 0.249 µM; in the assay on NCI-H460 lung, 0.429 µM; in the assay with RPMI-8226 leukemia it was 0.285 µM; in the assay on UACC-257 melanoma, 1.72 µM; with HS 578T breast, 1.39 µM. Moreover, the GI50 is 1.45 µM with ACHN renal, 0.283 µM in the assay with HCT-15 colon, 1.3 µM with MDA-MB-435 and 1.47 µM in the assay with HOP-62 NSCLC. Also, the TGI in the assay with MDA-MB-231 breast was 2.45 µM; with LOX IMVI melanoma it was 0.719 µM; in the assay with NCI-H460 lung it was 2.06 µM; in the assay with RPMI-8226 leukemia, 0.878 µM; in the assay on UACC-257 melanoma it was 3.25 µM; in the assay with HS 578T breast, 5.95 µM. Besides, the TGI turned out to be 2.84 µM with ACHN renal, 0.926 µM in the assay on HCT-15 colon, 2.69 µM in the assay on MDA-MB-435 and 2.94 µM with HOP-62 NSCLC.
On to `O=S(=O)(NCCNc1nccc(-c2c(-c3ccc(F)cc3)nc3sccn23)n1)c1ccc(O)cc1`, for which the GI50 was 7.77 µM with MDA-MB-231 breast; 1.88 µM in the assay on LOX IMVI melanoma; 0.845 µM in the assay with NCI-H460 lung; 4.52 µM with RPMI-8226 leukemia; 5.84 µM with UACC-257 melanoma; 6.48 µM in the assay with HS 578T breast. In addition, the GI50 in the assay on ACHN renal was 2.03 µM; with HCT-15 colon, 5 µM; in the assay on MDA-MB-435, 1.07 µM; in the assay with HOP-62 NSCLC, 14.3 µM. Besides, the TGI stood at 70.1 µM in the assay on MDA-MB-231 breast; 49.6 µM with LOX IMVI melanoma; 27.8 µM in the assay with NCI-H460 lung; 29.3 µM in the assay on RPMI-8226 leukemia; 34.7 µM in the assay on UACC-257 melanoma; 42.7 µM in the assay with HS 578T breast. In addition, the TGI in the assay on ACHN renal is 45.6 µM; in the assay with HCT-15 colon, greater than 100 µM; in the assay with MDA-MB-435 it was 14.8 µM; with HOP-62 NSCLC it was 85.6 µM.
As for `CC[C@]12C=CCN3CC[C@]4(C(=C(C(=O)OC)C1)Nc1cc5c(cc14)[C@@H]1[C@H](O5)[C@@H](O)[C@@]4(CC)CC(C(=O)OC)=C5Nc6ccccc6[C@@]56CCN1[C@@H]46)[C@@H]32`, the GI50 was 0.155 µM and 0.395 µM in the assay with MDA-MB-231 breast; 0.39 µM with LOX IMVI melanoma; 1.05 µM and 1.13 µM in the assay with NCI-H460 lung; 0.141 µM and 0.234 µM in the assay on RPMI-8226 leukemia; 0.582 µM and 0.672 µM in the assay with UACC-257 melanoma; 0.344 µM and 0.218 µM in the assay with HS 578T breast. Also, the GI50 in the assay on ACHN renal is 0.189 µM and 0.275 µM; in the assay on HCT-15 colon, 0.0964 µM and 0.26 µM; in the assay with MDA-MB-435, 0.395 µM and 0.309 µM; in the assay on HOP-62 NSCLC it was 0.319 µM. Further, the TGI in the assay on MDA-MB-231 breast is 10.2 µM and 28.9 µM; with LOX IMVI melanoma it was 2.35 µM; in the assay on NCI-H460 lung it was 7.05 µM and 11.9 µM; in the assay on RPMI-8226 leukemia it was 2.49 µM and 1.5 µM; in the assay on UACC-257 melanoma, 25 µM and 42.8 µM; with HS 578T breast, 25 µM and > 100 µM. Besides, the TGI in the assay on ACHN renal was 2.86 µM and 1.79 µM; in the assay on HCT-15 colon, 3.37 µM and 1.42 µM; in the assay with MDA-MB-435, 25 µM and 10.8 µM; in the assay on HOP-62 NSCLC, greater than 100 µM.
As to `O=C1NC(c2ccc3ccccc3c2)Nc2ccccc21` (stereo not drawn), the TGI with MDA-MB-231 breast was greater than 100 µM; in the assay on LOX IMVI melanoma, greater than 100 µM; in the assay on NCI-H460 lung, greater than 100 µM; with RPMI-8226 leukemia it was 69.8 µM; in the assay on UACC-257 melanoma, greater than 100 µM; with HS 578T breast, greater than 100 µM. Besides, the TGI in the assay with ACHN renal was greater than 100 µM; in the assay on HCT-15 colon, greater than 100 µM; in the assay on MDA-MB-435, 50.7 µM; with HOP-62 NSCLC it was greater than 100 µM.
